What was measured:
15-PGDH in A549 cells = target: T1, 15-PGDH in A549 cells (Homo sapiens, UniProt P15428); test: A549 cellular 15-PGDH assay (PGE2 accumulation, HTRF); assay type: cell-based; conditions: interleukin-stimulated, inhibitor 24 hrs, PGE2 by competitive HTRF, read-out: A549 Cell Assay IC50
T1 construct: endogenous in cells; host or cells: A549
T1 sequence (P15428 1-266): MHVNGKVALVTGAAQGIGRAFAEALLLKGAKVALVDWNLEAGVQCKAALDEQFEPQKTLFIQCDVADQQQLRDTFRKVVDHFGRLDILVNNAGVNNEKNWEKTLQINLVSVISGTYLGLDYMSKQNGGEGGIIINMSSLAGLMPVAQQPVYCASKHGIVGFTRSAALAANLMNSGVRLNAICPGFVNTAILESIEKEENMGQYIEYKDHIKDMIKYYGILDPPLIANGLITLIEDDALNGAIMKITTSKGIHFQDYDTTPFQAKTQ
Summary of the method: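 IL-13-stimulated A549 lung carcinoma cells released PGE2, which was measured in supernatants by competitive HTRF with a Eu-cryptate anti-PGE2 antibody and labelled PGE2. Signal falls as PGE2 rises. IC50 values were derived from the binding data.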

[1] = target: T2, human recombinant 15-PGDH (Homo sapiens, UniProt P15428); test: Recombinant 15-PGDH enzymatic inhibition assay (PGDH-Lumi, NADH signal); assay type: biochemical; conditions: recombinant 15-PGDH; 15 min pre-incubation, 60 min reaction with PGE2 and NAD+, NADH signal
T2 sequence (P15428 1-266): T1 sequence (P15428 1-266)
Summary of the method: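 Recombinant 15-PGDH pre-incubated 15 min at room temperature with compound (22 concentrations, 2-fold dilutions) in 50 mM Tris pH 7.5, 0.01% Tween-20, […].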

| SMILES | IC50 (15-PGDH in A549 cells) [nM] | IC50 [1] [nM] |
| --- | --- | --- |
| Cn1cc2cc(-c3ncc4nc([C@]5(O)C[C@@H](C(F)F)C5)sc4n3)cnc2n1 [Compound C109C] | 8.48 | 3.35 |
| Cn1nnc2cc(-c3ncc4cc([C@]5(O)C[C@@H](OC(F)(F)F)C5)sc4n3)cnc21 [Compound C111C, cis-1-(2-(3-methyl-3H-[1,2,3]triazolo[4,5-b]pyridin-6-yl)thieno[2,3-d]pyrimidin-6-yl)-3-(trifluoromethoxy)cyclobutanol] | 3.95 | 1.09 |
| Cn1nnc2cc(-c3ccc4nc([C@]5(O)C[C@H](OC(F)(F)F)C5)sc4n3)cnc21 [Compound C112C, cis-1-(5-(3-methyl-3H-[1,2,3]triazolo[4,5-b]pyridin-6-yl)[1,3]thiazolo[5,4-b]pyridin-2-yl)-3-(trifluoromethoxy)cyclobutanol] | 3.15 | 0.589 |
| COC[C@H]1C[C@](O)(c2cc3cnc(-c4cnc5nn(C)cc5c4)nc3s2)C1 [Compound C119C, cis-3-(methoxymethyl)-1-(2-(2-methyl-2H-pyrazolo[3,4-b]pyridin-5-yl)thieno[2,3-d]pyrimidin-6-yl)cyclobutanol] | 6.66 | 2.8 |
| Cn1cc(-c2ncc3cc([C@]4(O)C[C@@H](C(F)(F)F)C4)sc3n2)cn1 [Compound C120C, cis-1-(2-(1-methyl-1H-pyrazol-4-yl)thieno[2,3-d]pyrimidin-6-yl)-3-(trifluoromethyl)cyclobutanol] | 66.7 | 101 |
| O[C@]1(c2cc3cnc(-c4cccnc4)nc3s2)C[C@H](C(F)(F)F)C1 [Compound C122C, cis-1-(2-(3-pyridinyl)thieno[2,3-d]pyrimidin-6-yl)-3-(trifluoromethyl)cyclobutanol] | 18.3 | 6.83 |
| O[C@]1(c2cc3cnc(-c4ccc5nccnc5c4)nc3s2)C[C@H](C(F)(F)F)C1 [Compound C123C, cis-1-(2-(6-quinoxalinyl)thieno[2,3-d]pyrimidin-6-yl)-3-(trifluoromethyl)cyclobutanol] | 6.18 | 0.967 |
| O[C@]1(c2cc3cnc(-c4cnc5nccn5c4)nc3s2)C[C@H](C(F)(F)F)C1 [Compound C124C, cis-1-(2-(imidazo[1,2-a]pyrimidin-6-yl)thieno[2,3-d]pyrimidin-6-yl)-3-(trifluoromethyl)cyclobutanol] | 15.9 | 2.01 |
| O[C@]1(c2cc3cnc(-c4ccnnc4)nc3s2)C[C@H](C(F)(F)F)C1 [Compound C126C, cis-1-(2-(4-pyridazinyl)thieno[2,3-d]pyrimidin-6-yl)-3-(trifluoromethyl)cyclobutanol] | 29 | 11.6 |
| Cn1cc2cc(-c3ccc4ccc(C5(O)CC(C)(C)C5)cc4n3)cnc2n1 [Compound D2, 3,3-dimethyl-1-(2-(2-methyl-2H-pyrazolo[3,4-b]pyridin-5-yl)-7-quinolinyl)cyclobutanol] | 268 | 537 |
| Cn1cc2cc(-c3ccc4ccc([C@]5(O)C[C@@H](C(F)F)C5)cc4n3)cnc2n1 [Compound D5C, cis-3-(difluoromethyl)-1-(2-(2-methyl-2H-pyrazolo[3,4-b]pyridin-5-yl)-7-quinolinyl)cyclobutanol] | 253 | 198 |
| Cn1cc2cc(-c3ccc4cc([C@]5(O)C[C@@H](C(F)F)C5)ccc4n3)cnc2n1 [Compound D6C, cis-3-(difluoromethyl)-1-(2-(2-methyl-2H-pyrazolo[3,4-b]pyridin-5-yl)-6-quinolinyl)cyclobutanol] | 354 | 1030 |

The next molecules have a lower IC50 (15-PGDH in A549 cells) than those just listed; values first:

| IC50 (15-PGDH in A549 cells) [nM] | IC50 [1] [nM] | SMILES |
| --- | --- | --- |
| 2.43 | 0.302 | O[C@]1(c2cc3ccc(-c4cnc5[nH]nnc5c4)nc3s2)C[C@H](C(F)F)C1 [Compound C103C, cis-3-(difluoromethyl)-1-(6-(3H-[1,2,3]triazolo[4,5-b]pyridin-6-yl)thieno[2,3-b]pyridin-2-yl)cyclobutanol] |
| 1.95 | 0.43 | Cn1cc2cc(-c3ncc4cc(C5(O)CC6(CC(F)(F)C6)C5)sc4n3)cnc2n1 [Compound C116, 6,6-difluoro-2-(2-(2-methyl-2H-pyrazolo[3,4-b]pyridin-5-yl)thieno[2,3-d]pyrimidin-6-yl)spiro[3.3]heptan-2-ol] |
| 1.46 | 0.333 | Cc1cn2cc(-c3ccc4cc([C@]5(O)C[C@@H](C(F)F)C5)sc4n3)cnc2n1 [Compound C97C, cis-3-(difluoromethyl)-1-(6-(2-methylimidazo[1,2-a]pyrimidin-6-yl)thieno[2,3-b]pyridin-2-yl)cyclobutanol] |
| 1.46 | 0.429 | Cn1cc2cc(-c3ccc4sc([C@]5(O)C[C@@H](OC(F)(F)F)C5)cc4n3)cnc2n1 [Compound C117C, cis-1-(5-(2-methyl-2H-pyrazolo[3,4-b]pyridin-5-yl)thieno[3,2-b]pyridin-2-yl)-3-(trifluoromethoxy)cyclobutanol] |
| 1.25 | 0.671 | Cn1cc2cc(-c3ccc4nc(C5(O)CC6(CC6)C5)sc4n3)cnc2n1 [Compound C108, 5-(5-(2-methyl-2H-pyrazolo[3,4-b]pyridin-5-yl)[1,3]thiazolo[5,4-b]pyridin-2-yl)spiro [2.3]hexan-5-ol] |
| 0.989 | 0.49 | Cn1cc2cc(-c3ncc4cc(C5(O)CC6(CC6)C5)sc4n3)cnc2n1 [Compound C107, 5-(2-(2-methyl-2H-pyrazolo[3,4-b]pyridin-5-yl)thieno[2,3-d]pyrimidin-6-yl)spiro[2.3]hexan-5-ol] |
| 0.847 | 0.496 | Cn1nnc2cc(-c3ccc4cc([C@]5(O)C[C@@H](OC(F)(F)F)C5)sc4n3)cnc21 [Compound C101C, cis-1-(6-(3-methyl-3H-[1,2,3]triazolo[4,5-b]pyridin-6-yl)thieno[2,3-b]pyridin-2-yl)-3-(trifluoromethoxy)cyclobutanol] |
| 0.788 | 0.294 | Cn1cc2cc(-c3ccc4nc([C@]5(O)C[C@@H](OC(F)(F)F)C5)sc4n3)cnc2n1 [Compound C105C, cis-1-(5-(2-methyl-2H-pyrazolo[3,4-b]pyridin-5-yl)[1,3]thiazolo[5,4-b]pyridin-2-yl)-3-(trifluoromethoxy)cyclobutanol] |
| 0.671 | 0.3 | Cn1cc2cc(-c3ncc4cc([C@]5(O)C[C@@H](OC(F)(F)F)C5)sc4n3)cnc2n1 [Compound C100C, cis-1-(2-(2-methyl-2H-pyrazolo[3,4-b]pyridin-5-yl)thieno[2,3-d]pyrimidin-6-yl)-3-(trifluoromethoxy)cyclobutanol] |
| 0.666 | 0.291 | Cn1cc2cc(-c3ncc4cc([C@]5(O)C[C@@H](C6CC6)C5)sc4n3)cnc2n1 [Compound C99C, cis-3-cyclopropyl-1-(2-(2-methyl-2H-pyrazolo[3,4-b]pyridin-5-yl)thieno[2,3-d]pyrimidin-6-yl)cyclobutanol] |
